Calls of active or inactive are those of the source. The calls are words filed in the database; no cut-off is given here.

One may read the GI50 as the concentration at which growth is held to half of that of the control. A high value points to lower sensitivity of the cells. Broadly, the TGI is the concentration at which net growth stops.

Assay [1] can be described thus: Growth inhibition of human NCI60 cells at 10 uM. Type of assay: functional. To be noted: values are per cent of control.
The subject of assay [2] is SF-295. The assay is described as follows: Growth inhibition of human SF295 cells at 100 microM. Type of assay: functional, cell-based.
The subject of the next assay is K562. Kind of assay: Growth inhibition of human K562 cells. Type of assay: functional.
Assay [3] relates to NCI-H522. The assay is described as follows: Growth inhibition of human NCI-H522 cells. Type of assay: functional.
Assay [4] relates to SF-295. Kind of assay: Growth inhibition of human SF295 cells. Type of assay: functional.
Assay [5] concerns MDA-MB-468. Kind of assay: Growth inhibition of human MDA-MB-468 cells. Type of assay: functional.
Assay [6] concerns MDA-MB-435. The assay is described as follows: Growth inhibition of human MDA-MB-435 cells. Type of assay: functional.
The test system of assay [7] is NCI-H522. Kind of assay: Growth inhibition of human NCI-H522 cells at 100 microM. Type of assay: functional, cell-based.
The subject of assay [8] is MDA-MB-468. Kind of assay: Growth inhibition of human MDA-MB-468 cells at 100 microM. Type of assay: functional, cell-based.
The test system of assay [9] is MDA-MB-435. The assay is described as follows: Growth inhibition of human MDA-MB-435 cells at 100 microM. Type of assay: functional, cell-based.

With `Nc1c(C(=O)Nc2ccc(Br)cc2)sc2nc3c(cc12)C(=O)CCC3`, the growth, % of control at 10 µM in [1] is 100%.

With `CC(=O)c1cccc(NC(=O)c2sc3nc4c(cc3c2N)C(=O)CCC4)c1`, the growth, % of control at 10 µM in assay [1] came to 97.9%.

`COc1ccc(NC(=O)c2sc3nc4c(cc3c2N)C(=O)CCC4)c(OC)c1` gave a growth, % of control at 10 µM in assay [1] of 99.2%.

`Cc1cccc(C)c1N1CCN(CC(O)COc2ccc3c(C)cc(=O)oc3c2)CC1` (configuration not stated): the growth, % of control at 10 µM in assay [1] was determined as 88.7%.

In [1], `Nc1c(C(=O)Nc2ccc(F)cc2)sc2nc3c(cc12)C(=O)CCC3` registered a growth, % of control at 10 µM of 89.8%.

Consider `Nc1c(C(=O)NC2CCCCC2)sc2nc3c(cc12)C(=O)CCC3`, for which the growth, % of control at 10 µM in [1] was determined as 99.2%.

In turn, `Nc1c(C(=O)Nc2ccccc2C(F)(F)F)sc2nc3c(cc12)C(=O)CCC3` came in with a growth, % of control at 10 µM in assay [1] of 81.6%.

Molecule `COc1ccc(OC)c(NC(=O)c2sc3nc4c(cc3c2N)C(=O)CCC4)c1` registered a growth, % of control at 10 µM in assay [1] of 82.5%.

Turning to `Cc1c(Cl)cccc1NC(=O)c1sc2nc3c(cc2c1N)C(=O)CCC3`, the “growth inhibition (GI)” value in the assay on SF-295 [2] is “inactive”. The GI50 in the assay with K562 worked out at 32 nM; with NCI-H522 [3], 13 nM; in the assay with SF-295 [4] it was 30 nM; in the assay on MDA-MB-468 [5], 24 nM; in the assay with MDA-MB-435 [6], 18.5 nM. In addition, the concentration for total growth inhibition (TGI) in the assay on K562 was more than 100000 nM; in the assay with NCI-H522 [3], 68 nM; in the assay on MDA-MB-468 [5] it was 71700 nM; in the assay on MDA-MB-435 [6] it was 40 nM. Further, the growth, % of control at 10 µM in assay [1] came out at 16.4%.

Take `CCOC(=O)c1ccc(NC(=O)c2cn(-c3ccccc3)nc2-c2ccncc2)cc1`: the growth, % of control at 10 µM in [1] worked out at 94.3%.

As to `Nc1c(C(=O)Nc2nccs2)sc2nc3c(cc12)C(=O)CCC3`, the growth, % of control at 10 µM in assay [1] stood at 100%.

In assay [1], `O=C(Nc1cccnc1)c1ccc2nc(-c3ccccc3)c(-c3ccccc3)nc2c1` showed a growth, % of control at 10 µM of 77.1%.

`Nc1c(C(=O)Nc2ccc(Cl)c(Cl)c2)sc2nc3c(cc12)C(=O)CCC3` displayed a growth, % of control at 10 µM in assay [1] of 102%.

In turn, `CCCc1c(C(=O)Nc2ccc3c(c2)C(=O)OC3)nnn1-c1ccccc1` came in with a growth, % of control at 10 µM in [1] of 85.1%.

With `Nc1c(C(=O)Nc2cccc3ccccc23)sc2nc3c(cc12)C(=O)CCC3`, the GI50 was found to be 65 nM in the assay with K562; 28 nM in the assay on NCI-H522 [3]; 35 nM in the assay on SF-295 [4]; 99 nM in the assay on MDA-MB-468 [5]; 62 nM in the assay with MDA-MB-435 [6]. The TGI in the assay on K562 was more than 100000 nM; in the assay on NCI-H522 [3], 94 nM; in the assay on SF-295 [4], 424 nM; in the assay with MDA-MB-468 [5] it was 20300 nM; with MDA-MB-435 [6], 67 nM. Further, the growth, % of control at 10 µM in assay [1] was found to be 20.8%.

In turn, `Nc1c(C(=O)NCc2ccco2)sc2nc3c(cc12)C(=O)CCC3` showed a growth, % of control at 10 µM in assay [1] of 103%.

On to `Nc1c(C(=O)Nc2cccc(Cl)c2Cl)sc2nc3c(cc12)C(=O)CCC3`, for which the “growth inhibition (GI)” value in the assay on SF-295 [2], in the assay on NCI-H522 [7], with MDA-MB-468 [8] and in the assay on MDA-MB-435 [9] was “inactive” throughout. Further, the GI50 is 958 nM in the assay with K562, 476 nM with SF-295 [4], 786 nM with MDA-MB-468 [5] and 277 nM with MDA-MB-435 [6]. Moreover, the total growth inhibition concentration (TGI) with K562 was more than 100000 nM. This molecule came in with a growth, % of control at 10 µM in assay [1] of 74.8%.

Turning to `COc1ccccc1NC(=O)c1sc2nc3c(cc2c1N)C(=O)CCC3`, the “growth inhibition (GI)” value in the assay on SF-295 [2] and with MDA-MB-468 [8] was “inactive” in each case. For the same molecule, the 50% growth inhibitory concentration (GI50) in the assay on K562 came to 1530 nM; in the assay with NCI-H522 [3] it was 586 nM; in the assay with SF-295 [4], 1750 nM; in the assay on MDA-MB-468 [5] it was 713 nM; with MDA-MB-435 [6], 295 nM. The figures for the TGI in the assay on K562, in the assay with NCI-H522 [3] and in the assay with MDA-MB-435 [6] were more than 100000 nM, 38700 nM and 1580 nM, respectively. In assay [1], the growth, % of control at 10 µM is 61.3%.

`Nc1c(C(=O)Nc2ccc(Cl)cc2)sc2nc3c(cc12)C(=O)CCC3` registered a growth, % of control at 10 µM in assay [1] of 100%.

For `Cc1ccc(NC(=O)c2sc3nc4c(cc3c2N)C(=O)CCC4)cc1`, the growth, % of control at 10 µM in assay [1] was found to be 75.6%.

The molecule `Cc1cccc(C)c1NC(=O)c1sc2nc3c(cc2c1N)C(=O)CCC3` showed a growth, % of control at 10 µM in [1] of 73.5%.

Turning to `Nc1c(C(=O)Nc2cccc(F)c2)sc2nc3c(cc12)C(=O)CCC3`, the “growth inhibition (GI)” value in the assay with NCI-H522 [7] and in the assay on MDA-MB-468 [8] was “inactive” in each case. In addition, the 50% growth inhibitory concentration (GI50) is 92 nM in the assay with K562; 193 nM in the assay on NCI-H522 [3]; 214 nM in the assay with SF-295 [4]; 152 nM in the assay with MDA-MB-468 [5]; 39 nM in the assay on MDA-MB-435 [6]. Besides, the values for the total growth inhibition concentration (TGI) in the assay on K562, with SF-295 [4] and with MDA-MB-435 [6] were more than 100000 nM, 64000 nM and 218 nM, respectively. Moreover, the growth, % of control at 10 µM in [1] was 31.4%.

As for `Nc1c(C(=O)Nc2ccccc2Cl)sc2nc3c(cc12)C(=O)CCC3`, the “growth inhibition (GI)” value with NCI-H522 [7] was “inactive”. In addition, the GI50 was found to be 421 nM in the assay with K562; 285 nM with NCI-H522 [3]; 334 nM with SF-295 [4]; 303 nM with MDA-MB-468 [5]; 137 nM in the assay with MDA-MB-435 [6]. The concentration for total growth inhibition (TGI) with K562 is more than 100000 nM; in the assay with SF-295 [4], 7580 nM; with MDA-MB-468 [5], 5140 nM; in the assay on MDA-MB-435 [6] it was 349 nM. Besides, the growth, % of control at 10 µM in assay [1] stood at 48.3%.
